In PubChem BioAssay AID1259407 (Chemical Carcinogenesis Research Information System (CCRIS), 2018):
The source made the active and inactive calls. How the calls were made is not given here.

Tested on: CCRIS mutagenicity, Ames/micronucleus/aberration tests
Assay: CCRIS mutagenicity studies

Measured: mutagenic call

Cc1nnc2n1-c1ccc(Cl)cc1C(c1ccccc1Cl)=NC2
inactive: Test System: AMES SALMONELLA TYPHIMURIUM, Strain/Indicator: TA98, Metabolic Activation: NONE, Method: STANDARD PLATE inactive; negative | Test System: AMES SALMONELLA TYPHIMURIUM, Strain/Indicator: TA98, Metabolic Activation: RAT, LIVER, S-9, AROCLOR 1254, Method: STANDARD PLATE inactive; negative | Test System: AMES SALMONELLA TYPHIMURIUM, Strain/Indicator: TA100, Metabolic Activation: NONE, Method: STANDARD PLATE inactive; negative | Test System: AMES SALMONELLA TYPHIMURIUM, Strain/Indicator: TA100, Metabolic Activation: RAT, LIVER, S-9, AROCLOR 1254, Method: STANDARD PLATE inactive; negative | Test System: AMES SALMONELLA TYPHIMURIUM, Strain/Indicator: TA102, Metabolic Activation: NONE, Method: STANDARD PLATE inactive; negative | Test System: AMES SALMONELLA TYPHIMURIUM, Strain/Indicator: TA102, Metabolic Activation: RAT, LIVER, S-9, AROCLOR 1254, Method: STANDARD PLATE inactive; negative | Test System: AMES SALMONELLA TYPHIMURIUM, Strain/Indicator: TA1535, Metabolic Activation: NONE, Method: STANDARD PLATE inactive; negative | Test System: AMES SALMONELLA TYPHIMURIUM, Strain/Indicator: TA1535, Metabolic Activation: RAT, LIVER, S-9, AROCLOR 1254, Method: STANDARD PLATE inactive; negative | Test System: AMES SALMONELLA TYPHIMURIUM, Strain/Indicator: TA1537, Metabolic Activation: NONE, Method: STANDARD PLATE inactive; negative | Test System: AMES SALMONELLA TYPHIMURIUM, Strain/Indicator: TA1537, Metabolic Activation: RAT, LIVER, S-9, AROCLOR 1254, Method: STANDARD PLATE inactive; negative | Test System: E. COLI, Strain/Indicator: WP2 UVRA, Metabolic Activation: NONE, Method: STANDARD PLATE inactive; negative | Test System: E. COLI, Strain/Indicator: WP2 UVRA, Metabolic Activation: RAT, LIVER, S-9, AROCLOR 1254, Method: STANDARD PLATE inactive; negative

COc1c(O)cc2c3c(cc4ccccc4c13)NC2=O
inactive: Test System: AMES SALMONELLA TYPHIMURIUM, Strain/Indicator: TM677/8-AZAGUANINE, Metabolic Activation: NONE, Method: SUSPENSION/PLATE inactive; negative

Nc1nc(N)c2nc(-c3ccccc3)c(N)nc2n1
inactive: Test System: AMES SALMONELLA TYPHIMURIUM, Strain/Indicator: TA98, Metabolic Activation: HAMSTER, LIVER, S-9, AROCLOR 1254 (10%), Method: PREINCUBATION inactive; negative | Test System: AMES SALMONELLA TYPHIMURIUM, Strain/Indicator: TA98, Metabolic Activation: NONE, Method: PREINCUBATION inactive; negative | Test System: AMES SALMONELLA TYPHIMURIUM, Strain/Indicator: TA98, Metabolic Activation: RAT, LIVER, S-9, AROCLOR 1254 (10%), Method: PREINCUBATION inactive; negative | Test System: AMES SALMONELLA TYPHIMURIUM, Strain/Indicator: TA100, Metabolic Activation: HAMSTER, LIVER, S-9, AROCLOR 1254 (10%), Method: PREINCUBATION inactive; negative | Test System: AMES SALMONELLA TYPHIMURIUM, Strain/Indicator: TA100, Metabolic Activation: NONE, Method: PREINCUBATION inactive; negative | Test System: AMES SALMONELLA TYPHIMURIUM, Strain/Indicator: TA100, Metabolic Activation: RAT, LIVER, S-9, AROCLOR 1254 (10%), Method: PREINCUBATION inactive; negative | Test System: AMES SALMONELLA TYPHIMURIUM, Strain/Indicator: TA1535, Metabolic Activation: HAMSTER, LIVER, S-9, AROCLOR 1254 (10%), Method: PREINCUBATION inactive; negative | Test System: AMES SALMONELLA TYPHIMURIUM, Strain/Indicator: TA1535, Metabolic Activation: NONE, Method: PREINCUBATION inactive; negative | Test System: AMES SALMONELLA TYPHIMURIUM, Strain/Indicator: TA1535, Metabolic Activation: RAT, LIVER, S-9, AROCLOR 1254 (10%), Method: PREINCUBATION inactive; negative | Test System: AMES SALMONELLA TYPHIMURIUM, Strain/Indicator: TA1537, Metabolic Activation: HAMSTER, LIVER, S-9, AROCLOR 1254 (10%), Method: PREINCUBATION inactive; negative | Test System: AMES SALMONELLA TYPHIMURIUM, Strain/Indicator: TA1537, Metabolic Activation: NONE, Method: PREINCUBATION inactive; negative | Test System: AMES SALMONELLA TYPHIMURIUM, Strain/Indicator: TA1537, Metabolic Activation: RAT, LIVER, S-9, AROCLOR 1254 (10%), Method: PREINCUBATION inactive; negative
